Legend:
BMEC = experiment: Cytotoxicity against BMEC by sulforhodamine B test; assay type: cell-based; details: Bos taurus
[1] = Displacement of [3H]colchicine from tubulin by scintillation proximity assay
HT-29 [2] = experiment: Cytotoxicity against human HT29 cells by sulforhodamine B test; assay type: functional, cell-based
NCI-H460 = experiment: Cytotoxicity against human H460 cells by sulforhodamine B test; assay type: functional, cell-based
HT-29 [3] = experiment: Cell cycle arrest in human HT29 cells assessed as accumulation at G0/G1 phase at 0.5 uM after 24 hrs by flow cytometry assay; assay type: functional
HT-29 [4] = experiment: Cell cycle arrest in human HT29 cells assessed as accumulation at S phase at 0.5 uM after 24 hrs by flow cytometry assay; assay type: functional
HT-29 [5] = experiment: Cell cycle arrest in human HT29 cells assessed as accumulation at G2/M phase at 0.5 uM after 24 hrs by flow cytometry assay; assay type: functional

Row | SMILES | IC50 (BMEC) | IC50 [1] | IC50 (HT-29 [2]) | IC50 (NCI-H460) | Activity (HT-29 [3]) | Activity (HT-29 [4]) | Activity (HT-29 [5])
1 | COc1cc(/C=C\c2cc(O)c3ccsc3c2)cc(OC)c1 | 110 nM | 3.8 µM |  |  |  |  | 
2 | COc1ccc(/C=C/c2cc(OC)c3ccoc3c2)cc1O | > 10000 nM | 6.2 µM |  |  |  |  | 
3 | COc1cc(/C=C\c2cc(O)c3ccsc3c2)cc2c1OCO2 | 880 nM | 4.9 µM |  |  |  |  | 
4 | COc1cc(/C=C\c2cc(O)c3ccoc3c2)cc(OC)c1 | 800 nM | 4 µM |  |  |  |  | 
5 | COc1ccc(/C=C\c2cc(OC)c3ccsc3c2)cc1O | 17 nM | 0.02 µM | 260 nM | 13 nM |  |  | 
6 | COc1ccc(/C=C\c2cc(OC)c3occc3c2)cc1O | 35 nM | 0.05 µM | 590 nM | 12 nM |  |  | 
7 | COc1cc(/C=C\c2cc(O)c3ccsc3c2)cc2sccc12 | 250 nM |  |  | 312 nM |  |  | 
8 | COc1ccc(/C=C\c2cc(OC)c3ccsc3c2)cc1N.Cl | 20 nM | 6.2 µM | 21 nM | 19 nM | 28% | 22% | 50%
9 | COc1ccc(/C=C\c2cc(OC)c3ccoc3c2)cc1O | 35 nM | 0.02 µM | 420 nM | 19 nM |  |  | 
10 | COc1ccc(/C=C\c2ccc3c(c2)C(C)(C)CCC3(C)C)cc1O | > 10000 nM |  |  |  |  |  | 
11 | COc1ccc(/C=C\c2cc(OC)c3ccsc3c2)cc1 | 123 nM |  |  | 110 nM |  |  | 
12 | COc1cc(/C=C\c2cc(O)c3ccoc3c2)cc2c1OCO2 | > 3000 nM | 7.7 µM |  |  |  |  | 
13 | COc1cc2c(c(OC)c1OC)-c1ccc(OC)c(=O)cc1[C@@H](NC(C)=O)CC2 [COLCHICINE] |  | 1.7 µM |  |  |  |  | 
14 | COc1ccc(/C=C\c2cc(OC)c(OC)c(OC)c2)cc1O [COMBRETASTATIN A4] | 3.7 nM | 0.1 µM | 118 nM | 1.2 nM |  |  | 
15 | COc1ccc(/C=C\c2cc(OC)c3c(c2)OCO3)cc1O [Combretastatin A-2] | 48 nM |  | > 1000 nM | 40 nM |  |  | 
